From PMC6803848, “Exploring New Structural Features of the 18β-Glycyrrhetinic Acid Scaffold for the Inhibition of Anaplastic Lymphoma Kinase” (Molecules, 2019)
≈ marks a conversion by molar mass, not a printed value.

Assays:
[1] = test system: MCF-7; assay: MTT antiproliferative assay, MCF-7 cells; assay type: cell-based; settings: Homo sapiens, MCF7; MCF-7, MTT
Method: (§1) All the cells were seeded in 96-well plates and incubated with 5% CO2 at 37 °C for 24 h. Next, the compounds and the reference were dissolved into the culture medium. The final concentration of DMSO in the medium was less than 0.5%. After the cells were treated with compounds for 48 h, the supernatant was removed and 5 mg/mL of a fresh prepared solution of MTT was added to each well and incubated with the cells at 37 °C for another 4 h. The medium was removed, and 100 μL of testing solution was added to each well. After an overnight incubation with 5% CO2 at 37 °C, the absorbance was measured at 490/630 nm by the microplate reader. The IC50 was calculated using GraphPad Prism version 6.0 software (San Diego, CA, USA) from the non-linear curve.

[2] = test system: LO2 cells; assay: MTT cytotoxicity assay, non-tumorigenic liver LO2 cell; assay type: cell-based; settings: 0.064–40.0 μg/mL, 48 h, Figure 8
Method: Given the mentioned results, the most efficient compound 3j was selected for in depth study, and it was evaluated in different concentrations (0.064–40.0 μg/mL) towards HepG2 cell line and non-tumorigenic liver LO2 cell. A 48 h continuous drug exposure protocol was employed by the MTT cytotoxicity assay.
as §1

[3] = test system: HT29; assay: MTT antiproliferative assay, HT29 cells; assay type: cell-based; settings: Homo sapiens, HT-29; for inhibition at 2 µg/mL: HT29, 2 μg/mL; for inhibition at 2 µg/mL / inhibition at 20 µg/mL: 48 h, MTT, read-out: Antiproliferative activity (growth inhibition, %); for inhibition at 20 µg/mL: HT29, 20 μg/mL; for IC50: HT29, MTT
Method: as §1

[4] = test system: HepG2; assay: MTT antiproliferative assay, HepG2 cells; assay type: cell-based, human; settings: five concentrations, 24, 48 or 72 h, Figure 7
[5] = biological target: ALK (Homo sapiens, UniProt Q9UM73); assay: Kinase activity determination (ELISA), ALK; assay type: biochemical; settings: purified ALK, 10 μmol/L ATP solution, read-out: Inhibitory effect on ALK activity, IC50
Method: The effects of the compounds on the activities of the tyrosine kinase was determined using enzyme-linked immunosorbent assay (ELISA). Briefly, 20 μg/mL substrate [poly (Glu,Tyr)4:1], 50 μL aliquot of 10 μmol/L ATP solution diluted in kinase buffer (50 mmol/L HEPES pH 7.5, 50 mmol/L MgCl2, 0.5 mmol/L MnCl2, 0.2 mmol/L Na3VO4, and 1 mmol/L DTT) was added to each well; 1 μL of various concentrations of target compound and positive control drug diluted in 1% DMSO (v/v) were then added to each well. 1% DMSO was used as the negative control. After 5–10 min preincubation, the kinase reaction was initiated by the addition of purified ALK proteins diluted in 49 μL of kinase buffer. After 30 min preincubation, the anti-phosphotyrosine monoclonalantibody (100 μL; 1:500, diluted in 5 mg/mL BSA T-PBS) was then added. […] A 100 μL aliquot of a solution containing 0.03% H2O2 and 2 mg/mL o-phenylenediamine in 0.1 mol/L citrate buffer was added. The reaction was terminated by the addition of 50 μL of 2 mol/L H2SO4 as the color changed, and the plate was analyzed using a multi-well spectrophotometer at 490 nm.

[6] = test system: A549; assay: MTT antiproliferative assay, A549 cells; assay type: cell-based; settings: Homo sapiens; for inhibition at 2 µg/mL: A549, 2 μg/mL; for inhibition at 2 µg/mL / inhibition at 20 µg/mL: 48 h, MTT, read-out: Antiproliferative activity (growth inhibition, %); for inhibition at 20 µg/mL: A549, 20 μg/mL; for IC50: A549, MTT
Method: as §1

[7] = test system: PC-3; assay: MTT antiproliferative assay, PC-3 cells; assay type: cell-based; settings: Homo sapiens; PC-3, MTT
Method: as §1

[8] = test system: Karpas299; assay: MTT antiproliferative assay, Karpas299 cells; assay type: cell-based; settings: Homo sapiens, KARPAS-299
Method: as §1

[9] = test system: HepG2; assay: MTT antiproliferative assay, HepG2 cells; assay type: cell-based; settings: Homo sapiens
Method: as §1

ALK, sequence (Q9UM73 19-1620): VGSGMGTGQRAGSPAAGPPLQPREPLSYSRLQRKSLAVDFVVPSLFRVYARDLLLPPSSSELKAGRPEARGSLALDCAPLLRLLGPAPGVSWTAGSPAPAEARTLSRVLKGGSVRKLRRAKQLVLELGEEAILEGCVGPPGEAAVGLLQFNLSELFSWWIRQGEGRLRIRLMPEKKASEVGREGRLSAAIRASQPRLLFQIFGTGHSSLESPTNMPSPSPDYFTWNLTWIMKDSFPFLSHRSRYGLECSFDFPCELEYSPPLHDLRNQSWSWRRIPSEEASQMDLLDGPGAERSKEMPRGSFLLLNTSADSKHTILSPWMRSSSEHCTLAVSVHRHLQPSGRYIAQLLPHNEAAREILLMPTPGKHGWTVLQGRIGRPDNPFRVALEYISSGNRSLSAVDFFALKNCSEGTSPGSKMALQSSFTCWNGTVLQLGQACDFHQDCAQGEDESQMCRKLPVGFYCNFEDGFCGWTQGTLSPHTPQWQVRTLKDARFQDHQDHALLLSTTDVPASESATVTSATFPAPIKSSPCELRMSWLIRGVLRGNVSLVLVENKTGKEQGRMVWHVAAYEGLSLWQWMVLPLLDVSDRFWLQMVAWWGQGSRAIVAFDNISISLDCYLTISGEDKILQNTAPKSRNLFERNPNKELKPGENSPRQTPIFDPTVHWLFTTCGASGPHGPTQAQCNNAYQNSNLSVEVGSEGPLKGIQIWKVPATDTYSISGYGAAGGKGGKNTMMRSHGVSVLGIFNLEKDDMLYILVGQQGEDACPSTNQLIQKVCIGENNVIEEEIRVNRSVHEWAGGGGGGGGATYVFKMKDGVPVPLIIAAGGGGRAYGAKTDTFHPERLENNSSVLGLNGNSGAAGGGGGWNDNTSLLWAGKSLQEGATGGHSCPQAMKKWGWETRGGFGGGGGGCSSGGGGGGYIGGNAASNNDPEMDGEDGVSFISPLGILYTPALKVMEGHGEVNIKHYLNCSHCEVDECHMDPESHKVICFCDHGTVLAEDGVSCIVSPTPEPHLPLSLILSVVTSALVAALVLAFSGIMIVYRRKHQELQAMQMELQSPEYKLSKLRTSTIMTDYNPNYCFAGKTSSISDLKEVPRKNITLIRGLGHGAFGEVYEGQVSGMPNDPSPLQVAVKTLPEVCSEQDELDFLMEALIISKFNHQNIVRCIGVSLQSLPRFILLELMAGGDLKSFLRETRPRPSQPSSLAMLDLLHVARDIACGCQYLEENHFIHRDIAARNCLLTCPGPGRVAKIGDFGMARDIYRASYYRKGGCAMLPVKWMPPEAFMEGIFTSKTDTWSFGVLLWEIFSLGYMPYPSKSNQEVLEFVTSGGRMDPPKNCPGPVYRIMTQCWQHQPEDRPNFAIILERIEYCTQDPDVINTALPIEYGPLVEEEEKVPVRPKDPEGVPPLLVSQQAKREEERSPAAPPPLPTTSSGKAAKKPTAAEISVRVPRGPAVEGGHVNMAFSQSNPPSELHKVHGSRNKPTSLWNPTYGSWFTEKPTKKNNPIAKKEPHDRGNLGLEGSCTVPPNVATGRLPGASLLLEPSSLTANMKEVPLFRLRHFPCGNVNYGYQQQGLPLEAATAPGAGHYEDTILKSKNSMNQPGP

CC1(C)C2CC[C@]3(C)[C@H](C(=O)C=C4[C@@H]5C[C@@](C)(C(=O)O)CC[C@]5(C)CC[C@]43C)[C@@]2(C)CC[C@@H]1OC(=O)Nc1cccc(C(F)(F)F)c1 (stereo partly drawn) [3j, 3β-(((3-(trifluoromethyl)phenyl)carbamoyl)oxy)-11-oxo-olean-12-en-30-oic acid]
IC50 [1]: 5.26 µg/mL (≈ 8 µM)
melting point: 239.1 to 240.7 °C
Toxic action towards LO2 cells [2]: did not exhibit significant toxic action
inhibition at 2 µg/mL [3]: 24.8%
inhibition at 20 µg/mL [3]: 99.6%
IC50 [3]: 3.19 µg/mL (≈ 4.85 µM)
Inhibition of proliferation of HepG2 cell, concentration and time dependence [4]: inhibited the proliferation of HepG2 cell in a significant concentration manner, whereas it did not occur in a time-dependent manner
IC50 [5]: 121 nM
inhibition at 2 µg/mL [6]: 17.7%
inhibition at 20 µg/mL [6]: 88.3%
IC50 [6]: 2.81 µg/mL (≈ 4.27 µM)
IC50 [7]: 5.96 µg/mL (≈ 9.06 µM)
IC50 [8]: 5.59 µg/mL (≈ 8.5 µM)
IC50 [9]: 5.55 µg/mL (≈ 8.44 µM)

CC1(C)C2CC[C@]3(C)[C@H](C(=O)C=C4[C@@H]5C[C@@](C)(C(=O)O)CC[C@]5(C)CC[C@]43C)[C@@]2(C)CC[C@@H]1OC(=O)Nc1cc(C(F)(F)F)cc(C(F)(F)F)c1 (stereo partly drawn) [3k, 3β-(((3,5-bis (trifluoromethyl)phenyl)carbamoyl)oxy)-11-oxo-olean-12-en-30-oic acid]
IC50 [1]: 7 µg/mL (≈ 9.64 µM)
melting point: 248.8 to 251.7 °C
inhibition at 2 µg/mL [3]: 10.8%
inhibition at 20 µg/mL [3]: 94.8%
IC50 [3]: 6.47 µg/mL (≈ 8.91 µM)
IC50 [5]: 278 nM
inhibition at 2 µg/mL [6]: 18.8%
inhibition at 20 µg/mL [6]: 88.8%
IC50 [6]: 2.93 µg/mL (≈ 4.04 µM)
IC50 [7]: 10.3 µg/mL (≈ 14.2 µM)
IC50 [8]: 9.16 µg/mL (≈ 12.6 µM)
IC50 [9]: 11.2 µg/mL (≈ 15.5 µM)
